Data as given in US9340577B2, “HLA binding motifs and peptides and their uses” (priority 1992, dated 2016).
pIC50: −log10 of the molar value. No end group written: not given here.

Columns and labels:
Test in all cases: biochemical
Assay type in all cases: binding
A*0203 = A*0203 (Homo sapiens, UniProt P04439, A173T/D140Y/D185E/D98H/E277Q/G131W/G231S/I119V/I121R/I166T/I218V/L180W/L300P/L318F/N151K/N90K/P208A/P217A/Q86G/Q94H/R138H/R169H/T345S)
HLA-A*0201 (HLA-A2.1) = HLA-A*0201 (HLA-A2.1) (Homo sapiens, UniProt P04439, D140Y/D185E/D98H/E176V/E277Q/G131W/G231S/I119V/I121R/I166T/I218V/L300P/L318F/N151K/N90K/P208A/P217A/Q86G/Q94H/R138H/R169H/T345S)
A*0206 = A*0206 (Homo sapiens, UniProt P04439, D140Y/D185E/D98H/E176V/E277Q/F33Y/G131W/G231S/I119V/I121R/I166T/I218V/L300P/L318F/N151K/N90K/P208A/P217A/Q86G/Q94H/R138H/R169H/T345S)
A*6802 = A*6802 (Homo sapiens, UniProt P04439, A269V/D140Y/D185E/E176V/E277Q/E87N/F33Y/G231S/I121R/I166T/I218V/L180W/L300P/L318F/N151K/P208A/P217A/Q86R/R138H/R169H/S129P/T345S/V36M)
A*0202 = A*0202 (Homo sapiens, UniProt P04439, D140Y/D185E/D98H/E176V/E277Q/G131W/G231S/I119L/I121R/I166T/I218V/L180W/L300P/L318F/N151K/N90K/P208A/P217A/Q67R/Q86G/Q94H/R138H/R169H/T345S)

Molecule	pIC50 (A*0203)	pIC50 (HLA-A*0201 (HLA-A2.1))	pIC50 (A*0206)	pIC50 (A*6802)	pIC50 (A*0202)
CSCC[C@H](NC(=O)[C@@H](N)CCCNC(=N)N)C(=O)N1CCC[C@H]1C(=O)N[C@@H](CCC(=O)O)C(=O)N[C@@H](C)C(=O)N[C@@H](C)C(=O)N1CCC[C@H]1C(=O)N1CCC[C@H]1C(=O)N[C@H](C(=O)N[C@H](C(=O)O)C(C)C)C(C)C [Peptide 1317.29]	8.20	7.26	6.59	< 4.70	7.21
CC(C)C[C@H](NC(=O)[C@@H](N)CCCNC(=N)N)C(=O)N1CCC[C@H]1C(=O)N[C@@H](CCC(=O)O)C(=O)N[C@@H](C)C(=O)N[C@@H](C)C(=O)N1CCC[C@H]1C(=O)N1CCC[C@H]1C(=O)N[C@H](C(=O)N[C@H](C(=O)O)C(C)C)C(C)C [Peptide 1323.17]	7.74	6.82	6.62	< 4.70	7.49
CSCC[C@H](NC(=O)[C@H](C)N)C(=O)N[C@@H](CS)C(=O)N[C@@H](CCCNC(=N)N)C(=O)N[C@@H](Cc1c[nH]c2ccccc12)C(=O)NCC(=O)N[C@@H](CC(C)C)C(=O)N[C@@H](CC(C)C)C(=O)N[C@H](C(=O)O)C(C)C [Peptide 1334.07]	5.80	7.29	5.67	5.41	5.03
CC[C@H](C)[C@H](NC(=O)CNC(=O)[C@@H](NC(=O)[C@@H](NC(=O)[C@H](C)NC(=O)CN)[C@@H](C)O)C(C)C)C(=O)N[C@@H](CCSC)C(=O)N[C@H](C(=O)NCC(=O)N[C@H](C(=O)N[C@H](C(=O)O)C(C)C)C(C)C)[C@@H](C)CC [Peptide 9013.0342]	6.47	< 4.70	5.34	6.17	5.12
CC[C@H](C)[C@H](N)C(=O)N[C@@H](CCSC)C(=O)N[C@H](C(=O)NCC(=O)N[C@H](C(=O)N[C@@H](CC(C)C)C(=O)N[C@H](C(=O)NCC(=O)N[C@H](C(=O)N[C@@H](C)C(=O)N[C@H](C(=O)O)C(C)C)C(C)C)C(C)C)C(C)C)[C@@H](C)CC [Peptide 9013.0346]	7.26	7.12	7.21	5.05	7.74
ALAEAMSQA [Peptide 1539.04]	7.70	7.82	7.77	5.52	8.72
ALAFTCEPET [Peptide 9013.0156]	6.55	< 4.70	5.10	< 4.70	6.69
ALFNVQEGV [Peptide 1578.41]	8.28	7.19	7.35	6.04	8.70
ALNTTYLWWV [Peptide 9013.0217]	8.25	6.65	6.24	5.11	7.32
ALYSWFVNGT [Peptide 9013.0173]	8.44	6.18	6.06	< 4.70	8.05
ALYWFRTAM [Peptide 86.0195]	6.67	5.83	4.86	< 4.70	7.77
ALYWYKTGI [Peptide 86.0176]	7.28	6.18	5.39	5.48	7.68
ALYWYRTGI [Peptide 86.0181]	7.19	6.26	5.33	5.31	7.62
ALYWYRTGL [Peptide 1578.30]	7.64	5.30	4.94	< 4.70	8.09
ALYWYRTGM [Peptide 86.0189]	7.24	5.80	4.81	< 4.70	7.89
AVAFTCEPEV [Peptide 9013.0155]	7.27	5.10	6.70	4.87	6.63
CLAHNSDTGL [Peptide 9013.0191]	7.41	4.87	< 4.70	< 4.70	7.89
CQAHNSDTGV [Peptide 9013.0190]	6.33	< 4.70	5.81	< 4.70	6.47
EVFIPNITV [Peptide 9013.0062]	< 4.70	< 4.70	5.37	8.40	< 4.70

Molecule	pIC50 (A*0203)	pIC50 (HLA-A*0201 (HLA-A2.1))	pIC50 (A*0206)	pIC50 (A*6802)	pIC50 (A*0202)
EVLLLVHNV [Peptide 9013.0021]	5.18	5.52	6.97	8.52	5.20
EVQNTTYLWWV [Peptide 9013.0326]	4.71	< 4.70	< 4.70	7.47	< 4.70
FIQGAVISFV [Peptide 1578.12]	7.74	6.59	6.46	6.40	7.92
FLGALKSFV [Peptide 1593.56]	8.96	7.03	7.10	6.09	8.96
FLQGAIISFV [Peptide 1578.27]	8.18	7.35	7.16	7.07	9.19
FLQGSVICFV [Peptide 1578.05]	8.04	7.39	7.14	6.42	8.46
FLQSTQELFI [Peptide 9013.0179]	7.23	7.02	5.96	< 4.70	8.43
FLSALKLFL [Peptide 1578.17]	7.96	7.77	7.35	5.67	8.55
RQIIGYVIGV [Peptide 9013.0139]	7.70	–	7.33	7.57	8.13
RVYVCGIQNSV [Peptide 9013.0336]	8.44	–	6.52	5.20	9.66
SLLTFWNPPTV [Peptide 9013.0256]	7.27	–	6.27	5.64	7.27
SLQELFIPNI [Peptide 9013.0182]	7.46	–	7.18	5.13	7.82
TLGIMIGVLV [Peptide 9013.0251]	6.71	–	5.65	5.75	7.06
VLGEAMSQA [Peptide 1539.08]	7.66	–	5.96	< 4.70	7.68
VQWAFDNEV [Peptide 86.0209]	5.34	–	7.51	< 4.70	5.82
WLNNQSLPV [Peptide 9013.0070]	8.37	–	6.01	6.71	8.89
WQRLLLTASLV [Peptide 9013.0253]	7.72	–	6.30	< 4.70	6.61
YLIGTQQAT [Peptide 9013.0025]	7.74	–	5.26	5.08	8.59
YTYYRPGVNV [Peptide 9013.0208]	8.54	–	7.12	8.15	8.25
